The values below are quoted from earlier work in paper PMC8583936, “Machine Learning Assisted Approach for Finding Novel High Activity Agonists of Human Ectopic Olfactory Receptors” (International Journal of Molecular Sciences, 2021).

Where two headings read alike, the source gives them in different places.

One data set concerns the target T1, OR1A1 (Homo sapiens, UniProt Q9P1Q5).
T1 sequence (Q9P1Q5 1-309): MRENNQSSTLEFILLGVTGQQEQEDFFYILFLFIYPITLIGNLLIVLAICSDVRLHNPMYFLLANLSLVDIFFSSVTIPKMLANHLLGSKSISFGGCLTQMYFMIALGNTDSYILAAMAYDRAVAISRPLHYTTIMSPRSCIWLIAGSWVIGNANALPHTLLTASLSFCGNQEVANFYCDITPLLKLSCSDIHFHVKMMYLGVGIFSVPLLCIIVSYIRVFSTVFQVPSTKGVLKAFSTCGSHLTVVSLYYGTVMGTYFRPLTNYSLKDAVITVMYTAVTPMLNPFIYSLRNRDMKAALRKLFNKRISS
As to conditions: cited from earlier work.

Another data set deals with T2, OR2W1 (Homo sapiens, UniProt Q9Y3N9).
T2 sequence (Q9Y3N9 1-320): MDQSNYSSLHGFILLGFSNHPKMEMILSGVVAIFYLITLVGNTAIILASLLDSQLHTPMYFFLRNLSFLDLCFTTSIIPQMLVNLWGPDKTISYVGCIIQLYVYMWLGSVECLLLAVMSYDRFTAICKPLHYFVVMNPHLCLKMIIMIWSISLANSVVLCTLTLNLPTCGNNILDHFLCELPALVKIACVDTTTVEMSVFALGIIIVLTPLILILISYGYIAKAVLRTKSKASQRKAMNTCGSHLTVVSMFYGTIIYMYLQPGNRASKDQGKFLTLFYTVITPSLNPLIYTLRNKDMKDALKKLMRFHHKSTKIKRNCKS
As to conditions: cited from earlier work.

[1] abbreviates: Table S1, ref Supplement references [1]-[9] as printed after each odorant name.
[2] abbreviates: Table S2, ref Supplement references [2]-[12] as printed after each odorant name.

For `C=C(C)[C@H]1CC=C(C)C(=O)C1` [(+)-Carvone], at OR1A1 (setting [1]), the “Class (agonist / non-agonist / conflicting info.) for OR1A1” value is listed as “Agonist”. For the same compound, the “Class (agonist / non-agonist / antagonist / conflicting info.) for OR2W1” value on OR2W1 (setting [2]) was “Agonist”.
For the compound `C=C(C)[C@@H]1CC[C@@H](C)C(=O)C1` [(+)-Dihydrocarvone], the “Class (agonist / non-agonist / conflicting info.) for OR1A1” value on OR1A1 (setting [1]) was “Agonist”. In addition, the “Class (agonist / non-agonist / antagonist / conflicting info.) for OR2W1” value on OR2W1 (setting [2]) is on record as “Agonist”.
Consider `CC(C)=C1CC[C@@H](C)CC1=O` [(+)-Pulegone], for which the “Class (agonist / non-agonist / conflicting info.) for OR1A1” value on OR1A1 is “Non-agonist”. Besides, the “Class (agonist / non-agonist / antagonist / conflicting info.) for OR2W1” value on OR2W1 is recorded as “Non-agonist”.
For `C=C1CC[C@]2(C(C)C)C[C@H]12` [(+)-Sabinene], the “Class (agonist / non-agonist / conflicting info.) for OR1A1” value on OR1A1 (setting [1]) is given as “Non-agonist”. The “Class (agonist / non-agonist / antagonist / conflicting info.) for OR2W1” value at OR2W1 (setting [2]) is “Non-agonist”.
In the case of `CC1(C)[C@H]2CC[C@]1(C)C(=O)C2` [(-)-Camphor], the “Class (agonist / non-agonist / conflicting info.) for OR1A1” value on OR1A1 (setting [1]) was “Non-agonist”. Besides, the “Class (agonist / non-agonist / antagonist / conflicting info.) for OR2W1” value at OR2W1 (setting [2]) is listed as “Non-agonist”.
On to `CCCC/C=C/C=O` [(E)-2-heptenal], for which the “Class (agonist / non-agonist / conflicting info.) for OR1A1” value at OR1A1 (setting [1]) is given as “Non-agonist”. Besides, the “Class (agonist / non-agonist / antagonist / conflicting info.) for OR2W1” value on OR2W1 (setting [2]) is recorded as “Agonist”.
Take `CCCCCC[C@@H](C)O` [(R)-(-)-2-octanol]: the “Class (agonist / non-agonist / conflicting info.) for OR1A1” value at OR1A1 (setting [1]) is “Non-agonist”. The “Class (agonist / non-agonist / antagonist / conflicting info.) for OR2W1” value at OR2W1 (setting [2]) is on record as “Non-agonist”.
`CCCCCC[C@H](C)O` [(S)-(+)-2-octanol]: on OR1A1 (setting [1]), the “Class (agonist / non-agonist / conflicting info.) for OR1A1” value was “Non-agonist”. In addition, the “Class (agonist / non-agonist / antagonist / conflicting info.) for OR2W1” value on OR2W1 (setting [2]) is on record as “Non-agonist”.
For `CCOC(C)OCC` [Acetal], the “Class (agonist / non-agonist / conflicting info.) for OR1A1” value at OR1A1 (setting [1]) is listed as “Non-agonist”. In addition, the “Class (agonist / non-agonist / antagonist / conflicting info.) for OR2W1” value on OR2W1 (setting [2]) is “Non-agonist”.
As for `CC=O` [Acetaldehyde], the “Class (agonist / non-agonist / conflicting info.) for OR1A1” value at OR1A1 is reported as “Non-agonist”. Besides, the “Class (agonist / non-agonist / antagonist / conflicting info.) for OR2W1” value at OR2W1 is given as “Non-agonist”.
Regarding `CC(=O)O` [Acetic acid], on OR1A1 (setting [1]), the “Class (agonist / non-agonist / conflicting info.) for OR1A1” value is “Non-agonist”. Further, at OR2W1 (setting [2]), the “Class (agonist / non-agonist / antagonist / conflicting info.) for OR2W1” value is recorded as “Non-agonist”.
For the compound `CC(=O)C(C)O` (stereo not drawn) [Acetoin], the “Class (agonist / non-agonist / conflicting info.) for OR1A1” value at OR1A1 (setting [1]) is reported as “Non-agonist”. Further, the “Class (agonist / non-agonist / antagonist / conflicting info.) for OR2W1” value on OR2W1 (setting [2]) was “Non-agonist”.
Take `CC(=O)c1ccccc1` [Acetophenone]: on OR1A1, the “Class (agonist / non-agonist / conflicting info.) for OR1A1” value is listed as “Non-agonist”. In addition, on OR2W1, the “Class (agonist / non-agonist / antagonist / conflicting info.) for OR2W1” value was “Agonist”.
On to `C=CCc1ccccc1` [Allyl benzene], for which the “Class (agonist / non-agonist / conflicting info.) for OR1A1” value at OR1A1 is listed as “Non-agonist”. Also, the “Class (agonist / non-agonist / antagonist / conflicting info.) for OR2W1” value on OR2W1 is given as “Non-agonist”.
With `C=CCSSCC=C` [Allyl disulfide], the “Class (agonist / non-agonist / conflicting info.) for OR1A1” value on OR1A1 is listed as “Non-agonist”. In addition, at OR2W1, the “Class (agonist / non-agonist / antagonist / conflicting info.) for OR2W1” value was “Non-agonist”.
For the compound `C=CCOC(=O)CCCCCC` [Allyl heptanoate], the “Class (agonist / non-agonist / conflicting info.) for OR1A1” value at OR1A1 is given as “Agonist”. For the same compound, the “Class (agonist / non-agonist / antagonist / conflicting info.) for OR2W1” value on OR2W1 is given as “Non-agonist”.
With `C=CCSC` [Allyl methyl sulfide], the “Class (agonist / non-agonist / conflicting info.) for OR1A1” value at OR1A1 (setting [1]) is “Non-agonist”. The “Class (agonist / non-agonist / antagonist / conflicting info.) for OR2W1” value at OR2W1 (setting [2]) was “Non-agonist”.
Take `C=CCOC(=O)Cc1ccccc1` [Allyl phenylacetate]: the “Class (agonist / non-agonist / conflicting info.) for OR1A1” value on OR1A1 is reported as “Agonist”. Also, at OR2W1, the “Class (agonist / non-agonist / antagonist / conflicting info.) for OR2W1” value is listed as “Agonist”.
Regarding `CC1=CC[C@H](C(C)C)C=C1` [Alpha-phellandrene], the “Class (agonist / non-agonist / conflicting info.) for OR1A1” value at OR1A1 (setting [1]) was “Non-agonist”. Besides, the “Class (agonist / non-agonist / antagonist / conflicting info.) for OR2W1” value at OR2W1 (setting [2]) is “Non-agonist”.
Turning to `CCCCCOC(=O)CCC` [Amyl butyrate], the “Class (agonist / non-agonist / conflicting info.) for OR1A1” value at OR1A1 (setting [1]) is given as “Conflicting info”. Further, on OR2W1 (setting [2]), the “Class (agonist / non-agonist / antagonist / conflicting info.) for OR2W1” value is “Non-agonist”.
`CCCCCOC(=O)CCCCC` [Amyl hexanoate]: the “Class (agonist / non-agonist / conflicting info.) for OR1A1” value on OR1A1 (setting [1]) is “Conflicting info”. Moreover, the “Class (agonist / non-agonist / antagonist / conflicting info.) for OR2W1” value at OR2W1 (setting [2]) was “Non-agonist”.
